Measurements published in patent publication US20210330611A1, “THERAPY FOR NEUROLOGICAL DISEASES/DISORDERS” (priority 2020, published 2021).
Structures can show the parent of a compound that is named as a salt. Where two headings read alike, the source gives them in different places.

Legend:
[1] = system: LPS-induced microglia activation; test: Image-based assay of LPS-induced microglia activation (HTS and dose response); assay type: cell-based, rat; settings: for inhibition at 10 µM / IC50: Rattus norvegicus, Microglia; for inhibition at 10 µM: read-out: LPS % inhibition; for IC50: Table 7, read-out: LPS_IC50
[2] = system: fibrin-induced microglia activation; test: Image-based assay of fibrin-induced microglia activation (HTS and dose response); assay type: cell-based, rat; settings: for inhibition at 10 µM / IC50: Rattus norvegicus, Microglia; for inhibition at 10 µM: read-out: Fibrin % inhibition; for IC50: Table 7, read-out: fib_IC50
primary rat microglia [3] = test: Cell toxicity (dead cells, size <150 μm2) in coated fibrin (cFib) assay;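 note: share of dead cells sized under 150 µm2 at 10 µM in fibrin-stimulated microglia HTS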
[4] = system: fibrin- and LPS-induced microglia activation; test: cells; assay type: cell-based, rat; settings: for Activity: Table 7, fib = fibrin, LPS, tox = toxicity
primary rat microglia [5] = test: Cell toxicity (dead cells, size <150 μm2) in LPS assay
[6] = 48 h, primary microglia HTS, LPS stimulation, increased cell size (>800 μm^2) as marker of activation
[7] = primary microglia HTS, fibrin stimulation, increased cell size (>800 μm^2) as marker of activation
[8] = primary microglia HTS, fibrin stimulation, decreased size (<150 μm^2) as marker of toxicity
[9] = quadrant by fibrin and LPS inhibition in HTS of 1907 compounds
[10] = primary microglia HTS, LPS stimulation, decreased size (<150 μm^2) as marker of toxicity
[11] = primary HTS, 10 μM, LPS-stimulated primary microglia
[12] = primary HTS, 10 μM, fibrin-stimulated primary microglia
[13] = primary HTS, 10 μM, fibrin assay, dead cells size <150 μm2
[14] = primary HTS, 10 μM, LPS assay, dead cells size <150 μm2
[15] = primary microglia HTS, 10 μM, LPS-stimulated, cell size >800 μm^2 as marker of activation
[16] = primary microglia HTS, 10 μM, fibrin-stimulated, cell size >800 μm^2 as marker of activation
[17] = primary microglia HTS, 10 μM, fibrin assay, cell size <150 μm^2 as marker of toxicity
[18] = HTS of 1907 compounds, quadrant by fibrin and LPS inhibition
[19] = primary microglia HTS, 10 μM, LPS assay, cell size <150 μm^2 as marker of toxicity
[20] = 48 h, primary microglia HTS, LPS stimulation, activation = cell size >800 μm2
[21] = primary microglia HTS, fibrin stimulation, activation = cell size >800 μm2
[22] = primary microglia HTS, fibrin stimulation, toxicity = cell size <150 μm2
[23] = primary microglia HTS, LPS stimulation, toxicity = cell size <150 μm2

CCCCC[C@H](O)/C=C/[C@H]1[C@H](O)CC(=O)[C@@H]1CCCCCCC(=O)O [Alprostadil]
inhibition at 10 µM [1, 6]: 87% | inhibition at 10 µM [2, 7]: 100% | Fibrin % cell toxicity (primary rat microglia [3]; [8]): 9% | Quadrant (FIG. 5b) [4, 9]: Q2 | LPS % cell toxicity (primary rat microglia [5]; [10]): 3%

CC(=O)OCC(=O)[C@@]1(O)CC[C@H]2[C@@H]3CCC4=CC(=O)CC[C@]4(C)[C@H]3[C@@H](O)C[C@@]21C [Hydrocortisone acetate, reference compound]
inhibition at 10 µM [1, 6]: 89% | IC50 [1]: 17 nM | IC50 [2]: 10 nM | inhibition at 10 µM [2, 7]: 112% | Fibrin % cell toxicity (primary rat microglia [3]; [8]): 4% | Quadrant (FIG. 5b) ([4]; Table 2, screen at 10 μM): Q2 | Activity [4]: fib/LPS | Quadrant (FIG. 5b) [4, 9]: Q2 | LPS % cell toxicity (primary rat microglia [5]; [10]): 4%

C=C[C@H]1CN2CC[C@H]1C[C@H]2[C@H](O)c1ccnc2ccccc12 [Cinchonidine]
inhibition at 10 µM [1, 11]: 4% | inhibition at 10 µM [2, 12]: 13% | Fibrin % cell toxicity (primary rat microglia [3]; [13]): 1% | Quadrant (FIG. 5b) ([4]; primary HTS, 10 μM): Q4 | LPS % cell toxicity (primary rat microglia [5]; [14]): 0%

CC(CCc1ccccc1)NC(C)C(O)c1ccc(O)cc1 (stereo not drawn) [Nylidrin hydrochloride, reference compound]
inhibition at 10 µM [1, 6]: 24% | IC50 [1]: 7 nM | IC50 [2]: 2 nM | inhibition at 10 µM [2, 7]: 6% | Fibrin % cell toxicity (primary rat microglia [3]; [8]): 0% | Quadrant (FIG. 5b) ([4]; Table 2, screen at 10 μM): Q4 | Activity [4]: fib/LPS | Quadrant (FIG. 5b) [4, 9]: Q4 | LPS % cell toxicity (primary rat microglia [5]; [10]): 1%

CN(C)CCOC(=O)COc1ccc(Cl)cc1 [Meclofenoxate]
inhibition at 10 µM [1, 6]: 24% | inhibition at 10 µM [2, 7]: -23% | Fibrin % cell toxicity (primary rat microglia [3]; [8]): 1% | Quadrant (FIG. 5b) [4, 9]: Q4 | LPS % cell toxicity (primary rat microglia [5]; [10]): 0%

O=C(OC[C@H]1O[C@@H](OC(=O)c2cc(O)c(O)c(OC(=O)c3cc(O)c(O)c(O)c3)c2)[C@H](OC(=O)c2cc(O)c(O)c(OC(=O)c3cc(O)c(O)c(O)c3)c2)[C@@H](OC(=O)c2cc(O)c(O)c(OC(=O)c3cc(O)c(O)c(O)c3)c2)[C@@H]1OC(=O)c1cc(O)c(O)c(OC(=O)c2cc(O)c(O)c(O)c2)c1)c1cc(O)c(O)c(OC(=O)c2cc(O)c(O)c(O)c2)c1 [Tannic acid, reference compound]
inhibition at 10 µM [1, 6]: 32% | IC50 [1]: 4380 nM | IC50 [2]: 4960 nM | inhibition at 10 µM [2, 7]: -60% | Fibrin % cell toxicity (primary rat microglia [3]; [8]): 0% | Quadrant (FIG. 5b) ([4]; Table 2, screen at 10 μM): Q4 | Activity [4]: fib/LPS | Quadrant (FIG. 5b) [4, 9]: Q4 | LPS % cell toxicity (primary rat microglia [5]; [10]): 1%

C[C@]12CC[C@H]3[C@@H](CC[C@@]45O[C@@H]4C(O)=C(C#N)C[C@]35C)[C@@H]1CC[C@@H]2O [Trilostane]
inhibition at 10 µM [1, 15]: 11% | inhibition at 10 µM [2, 16]: -24% | Fibrin % cell toxicity (primary rat microglia [3]; [17]): 0% | Quadrant (FIG. 5b) [4, 18]: Q4 | LPS % cell toxicity (primary rat microglia [5]; [19]): 0%

NC(=O)C[S+]([O-])C(c1ccccc1)c1ccccc1 (stereo not drawn) [Modafinil]
inhibition at 10 µM [1, 6]: 25% | inhibition at 10 µM [2, 7]: -5% | Fibrin % cell toxicity (primary rat microglia [3]; [8]): 1% | Quadrant (FIG. 5b) [4, 9]: Q4 | LPS % cell toxicity (primary rat microglia [5]; [10]): 0%

CN(C)CCN(Cc1ccccc1)c1ccccn1 [Tripelennamine]
inhibition at 10 µM [1, 15]: 25% | inhibition at 10 µM [2, 16]: 14% | Fibrin % cell toxicity (primary rat microglia [3]; [17]): 1% | Quadrant (FIG. 5b) [4, 18]: Q4 | LPS % cell toxicity (primary rat microglia [5]; [19]): 0%

NC(=O)OCC(O)COc1ccc(Cl)cc1 (stereo not drawn) [Chlorphenesin Carbamate]
inhibition at 10 µM [1, 11]: -4% | inhibition at 10 µM [2, 12]: -41% | Fibrin % cell toxicity (primary rat microglia [3]; [13]): 1% | Quadrant (FIG. 5b) ([4]; primary HTS, 10 μM): Q4 | LPS % cell toxicity (primary rat microglia [5]; [14]): 0%

CCOc1ccc2ccccc2c1C(=O)N[C@@H]1C(=O)N2[C@@H]1SC(C)(C)[C@@H]2C(=O)O [Nafcillin Sodium]
inhibition at 10 µM [1, 6]: 15% | inhibition at 10 µM [2, 7]: -7% | Fibrin % cell toxicity (primary rat microglia [3]; [8]): 0% | Quadrant (FIG. 5b) [4, 9]: Q4 | LPS % cell toxicity (primary rat microglia [5]; [10]): 0%

Cc1ncc(CNC(=O)N(CCCl)N=O)c(N)n1 [Nimustine]
inhibition at 10 µM [1, 6]: 10% | inhibition at 10 µM [2, 7]: -1% | Fibrin % cell toxicity (primary rat microglia [3]; [8]): 1% | Quadrant (FIG. 5b) [4, 9]: Q4 | LPS % cell toxicity (primary rat microglia [5]; [10]): 0%

O=C(c1ccccc1)c1ccc2n1CCC2C(=O)O (stereo not drawn) [Ketorolac]
inhibition at 10 µM [1, 20]: 26% | inhibition at 10 µM [2, 21]: 15% | Fibrin % cell toxicity (primary rat microglia [3]; [22]): 0% | Quadrant (FIG. 5b) [4, 9]: Q4 | LPS % cell toxicity (primary rat microglia [5]; [23]): 0%

NNC(=O)c1ccncc1 [Isoniazid]
inhibition at 10 µM [1, 20]: 19% | inhibition at 10 µM [2, 21]: -29% | Fibrin % cell toxicity (primary rat microglia [3]; [22]): 1% | Quadrant (FIG. 5b) [4, 9]: Q4 | LPS % cell toxicity (primary rat microglia [5]; [23]): 0%

COC(=O)[C@@H]1[C@H]2C[C@H]3c4[nH]c5ccccc5c4CCN3C[C@@H]2CC[C@@H]1O [Yohimbine]
LPS % inhibition [1, 15]: −17% | Fibrin % inhibition [2, 16]: 4% | Fibrin % cell toxicity (primary rat microglia [3]; [17]): 1% | Quadrant (FIG. 5b) [4, 18]: Q4 | LPS % cell toxicity (primary rat microglia [5]; [19]): 0%
